Assay results reported in patent US5661144A, “Cephem derivatives with 3-substituted bis heterocycles” (Meiji Seika Kabushiki Kaisha, priority 1994, dated 1997).
Counter-ions that a name gives are not always drawn.

Columns and labels:
Experiment in all cases: Antibacterial activity (MIC), conventional two-fold dilution method
Type in all cases: cell-based
K. pneumoniae PC1602 = conditions: Klebsiella pneumoniae, 10^6 CFU/ml, Medium N, 35° C., 18 to 20 hours
Experimental: (§1) The test was carried out in the following manner: 10^6 CFU/ml of a bacterium to be tested was inoculated on a Medium N for disc susceptibility test (manufactured by Nissui Pharmaceutical Co., Ltd.), and cultivated at 35° C. for 18 to 20 hours.

R. cloacae G-0008 = conditions: 10^6 CFU/ml, Medium N, 35° C., 18 to 20 hours
Experimental: as §1

P. auruginosa E-2 = conditions: 10^6 CFU/ml, Medium N, 35° C., 18 to 20 hours
Experimental: as §1

S. marcescens No.1 = conditions: Serratia marcescens, 10^6 CFU/ml, Medium N, 35° C., 18 to 20 hours
Experimental: as §1

P. vulgaris GN76 = conditions: Proteus vulgaris, 10^6 CFU/ml, Medium N, 35° C., 18 to 20 hours
Experimental: as §1

S. epidermidis ATCC14990 = conditions: Staphylococcus epidermidis, 10^6 CFU/ml, Medium N, 35° C., 18 to 20 hours
Experimental: as §1

E. faecalis W-73 = conditions: Enterococcus faecalis, W73, 10^6 CFU/ml, Medium N, 35° C., 18 to 20 hours
Experimental: as §1

S. aureus 209P JC-1 = conditions: Staphylococcus aureus, 10^6 CFU/ml, Medium N, 35° C., 18 to 20 hours
Experimental: as §1

C. freundii GN346/16 = conditions: Citrobacter freundii, 10^6 CFU/ml, Medium N, 35° C., 18 to 20 hours
Experimental: as §1

M. morganii 1510/S-1 = conditions: Morganella morganii, 1510/S1, 10^6 CFU/ml, Medium N, 35° C., 18 to 20 hours
Experimental: as §1

E. coli NIHJ JC-2 = conditions: Escherichia coli, NIHJJC2, 10^6 CFU/ml, Medium N, 35° C., 18 to 20 hours
Experimental: as §1

Row | MIC (K. pneumoniae PC1602) [µg/mL] | MIC (R. cloacae G-0008) [µg/mL] | MIC (P. auruginosa E-2) [µg/mL] | MIC (S. marcescens No.1) [µg/mL] | MIC (P. vulgaris GN76) [µg/mL] | MIC (S. epidermidis ATCC14990) [µg/mL] | MIC (E. faecalis W-73) [µg/mL] | MIC (S. aureus 209P JC-1) [µg/mL] | MIC (C. freundii GN346/16) [µg/mL] | MIC (M. morganii 1510/S-1) [µg/mL] | MIC (E. coli NIHJ JC-2) [µg/mL] | SMILES
1 | 0.05 | 0.05 | 25 | 0.05 | 0.1 | 0.2 | 12.5 | 0.2 | 0.05 | < 0.025 | 0.05 | Cc1csc2c[n+](CC=CC3=C(C(=O)[O-])N4C(=O)C(NC(=O)C(=NOCF)c5nsc(N)n5)C4SC3)cn12 [Example 2, (6R, 7R)-7-[(Z)-2-(5-amino-1,2,4-thiadiazol-3-yl)-2-fluoromethoxyiminoacetamido]-3-[3-(3-methylimidazo[5,1-b]thiazolium-6-yl)-1-propenyl]-3-cephem-4-carboxylate (internal salt)]
2 | 0.05 | 0.05 | 12.5 | 0.05 | 0.1 | 0.1 | 12.5 | 0.2 | 0.05 | < 0.025 | < 0.025 | Nc1nc(C(=NOCF)C(=O)NC2C(=O)N3C(C(=O)[O-])=C(C=CC[n+]4cc5sccn5c4)CSC23)ns1 [Example 1, (6R, 7R)-7-[(Z)-2-(5-amino-1,2,4-thiadiazol-3-yl)-2-fluoromethoxyiminoacetamido]-3-[3-(imidazo[5,1-b]-thiazolium-6-yl)-1-propenyl]-3-cephem-4-carboxylate(internal salt)]
3 | < 0.025 | 0.05 | 12.5 | 0.05 | 0.1 | 0.2 | 12.5 | 0.39 | < 0.025 | < 0.025 | < 0.025 | Nc1nc(C(=NOCF)C(=O)NC2C(=O)N3C(C(=O)[O-])=C(C=CC[n+]4cc5sccn5c4CNC=O)CSC23)ns1 [Example 4, (6R, 7R)-7-[(Z)-2-(5-amino-1,2,4-thiadiazol-3-yl)-2-fluoromethoxyiminoacetamido]-3-[3-(5-formylaminomethylimidazo[5,1-b]thiazolium-6-yl]-1-propenyl]-3-cephem-4-carboxylate (internal salt)]
4 | 0.05 | 0.05 | 12.5 | 0.05 | 0.1 | 0.2 | 12.5 | 0.2 | 0.05 | < 0.025 | 0.05 | NC(=O)c1csc2c[n+](CC=CC3=C(C(=O)[O-])N4C(=O)C(NC(=O)C(=NOCF)c5nsc(N)n5)C4SC3)cn12 [Example 3, (6R, 7R)-7-[(Z)-2-(5-amino-1,2,4-thiadiazol-3-yl)-2-fluoromethoxyiminoacetamido]-3-[3-(3-carbamoylimidazo [5,1-b]thiazolium-6-yl)-1-propenyl]-3-cephem-4-carboxylate (internal salt)]
